The values that follow come from patent publication US12139492B2 (Endotarget Inc., priority 2021, dated 2024).

Like-named read-outs stand apart in the source and are kept apart here. A value given as a limit tells only on which side of the number the result lay.

Usually DC50 stands for the midpoint of the concentration-degradation curve. The Dmax is the largest share of the target that was removed.

Assay [1] deals with BTK (Homo sapiens, UniProt Q06187). As to the kind of experiment: Degradation of BTK protein in Namalwa cells (Western blot; DC50, Dmax). The conditions noted are these: for DC50: read-out: DC50 (BTK degradation), concentration giving 50% reduction of BTK expression level; for Dmax: read-out: Dmax (BTK degradation). On the technique in general: A western blot detects proteins with antibodies after separation by electrophoresis.
BTK, sequence (Q06187 whole entry): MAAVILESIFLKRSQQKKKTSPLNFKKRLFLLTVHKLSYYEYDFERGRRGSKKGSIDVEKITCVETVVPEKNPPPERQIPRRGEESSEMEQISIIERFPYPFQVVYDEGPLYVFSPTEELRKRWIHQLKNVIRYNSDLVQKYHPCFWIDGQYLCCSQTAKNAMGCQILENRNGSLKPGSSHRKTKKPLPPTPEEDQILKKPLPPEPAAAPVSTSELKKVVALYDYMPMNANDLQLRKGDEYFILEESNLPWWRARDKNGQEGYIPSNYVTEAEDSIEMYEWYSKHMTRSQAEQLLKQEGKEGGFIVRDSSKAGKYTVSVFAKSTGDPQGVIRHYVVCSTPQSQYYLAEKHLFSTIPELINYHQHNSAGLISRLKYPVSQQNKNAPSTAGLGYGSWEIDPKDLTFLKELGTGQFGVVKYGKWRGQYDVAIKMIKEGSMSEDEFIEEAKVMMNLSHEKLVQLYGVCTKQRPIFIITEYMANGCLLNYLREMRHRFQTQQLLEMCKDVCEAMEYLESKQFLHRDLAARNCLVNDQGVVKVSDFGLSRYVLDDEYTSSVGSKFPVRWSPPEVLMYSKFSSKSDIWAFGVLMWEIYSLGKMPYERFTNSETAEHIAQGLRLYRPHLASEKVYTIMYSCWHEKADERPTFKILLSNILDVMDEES

In assay [2] the test system is JeKo-1 cells. As to the kind of experiment: Antiproliferative effect, MTS cell viability assay, JeKo-1 cells. The assay is classed as cell-based. The conditions noted are these: JeKo-1 mantle cell lymphoma cells, read-out: IC50 (anti-proliferation) JeKO-1 cells. The gist of the method:
(§1)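 Cells were exposed to compound at 0, 0.001, 0.01, 0.1, 1 and 10 μM for 72 h. Viability was then measured by MTS assay, reading formazan produced by metabolically active cells as absorbance at 490 nm.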

In assay [3] the test system is Mino cells. The assay is described as follows: Antiproliferative effect, MTS cell viability assay, Mino cells. It counts as cell-based. As to conditions: Mino mantle cell lymphoma cells, read-out: IC50 (anti-proliferation) Mino cells. Put shortly:
as §1
Background: Formazan colour is commonly taken as a measure of viable cells.

Regarding `Nc1ncnc2c1c(-c1ccc(Oc3ccccc3)cc1)nn2C1CCN(CCCN2CCC(CC3CCN(c4ccc(NC5CCC(=O)NC5=O)cc4)CC3)C2)CC1` (centres unmarked) [Compound 567, 3-((4-(4-((1-(3-(4-(4-amino-3-(4-phenoxyphenyl)-1H-pyrazolo[3,4-d]pyrimidin-1-yl)piperidin-1-yl)propyl)pyrrolidin-3-yl)methyl)piperidin-1-yl)phenyl)amino)piperidine-2,6-dione], the DC50 in assay [1] (cell line not given) is 10 to 50 nM. The Dmax in assay [1] was greater than 90%. The IC50 in assay [2] (Homo sapiens) is less than 1000 nM; in assay [3] (Homo sapiens, MINO), 1000 to 10000 nM.

On to `Nc1ncnc2c1c(-c1ccc(Oc3ccccc3)cc1)nn2C1CCN(C2CCN(CC3CCN(c4ccc(N5CCC(=O)NC5=O)cc4)CC3)CC2)CC1` [Compound 568, 1-(4-(4-((4-(4-amino-3-(4-phenoxyphenyl)-1H-pyrazolo[3,4-d]pyrimidin-1-yl)-[1,4′-bipiperidin]-1′-yl)methyl)piperidin-1-yl)phenyl)dihydropyrimidine-2,4(1H,3H)-dione], for which, in assay [1] (cell line not given), the DC50 was greater than 50 nM. Besides, in assay [1], the Dmax was greater than 75%. Moreover, the IC50 in assay [2] (Homo sapiens) lay within 1000 to 10000 nM; in assay [3] (Homo sapiens, MINO) it was 1000 to 10000 nM.

On to `Nc1ncnc2c1c(-c1ccc(Oc3ccccc3)cc1)nn2C1CCN(C2CCN(CCN3CCC(c4ccc(N5CCC(=O)NC5=O)cc4)CC3)CC2)CC1` [Compound 569, 1-(4-(1-(2-(4-(4-amino-3-(4-phenoxyphenyl)-1H-pyrazolo[3,4-d]pyrimidin-1-yl)-[1,4′-bipiperidin]-1′-yl)ethyl)piperidin-4-yl)phenyl)dihydropyrimidine-2,4(1H,3H)-dione], for which the DC50 in assay [1] (cell line not given) was 10 to 50 nM. Also, the Dmax in assay [1] is greater than 90%. Also, the IC50 in assay [2] (Homo sapiens) lay within 1000 to 10000 nM; in assay [3] (Homo sapiens, MINO) it was 1000 to 10000 nM.

With `Nc1ncnc2c1c(-c1ccc(Oc3ccccc3)cc1)nn2C1CCN(C2CCN(CCN3CCN(c4ccc(N5CCC(=O)NC5=O)cc4)CC3)CC2)CC1` [Compound 570, 1-(4-(4-(2-(4-(4-amino-3-(4-phenoxyphenyl)-1H-pyrazolo[3,4-d]pyrimidin-1-yl)-[1,4′-bipiperidin]-1′-yl)ethyl)piperazin-1-yl)phenyl)dihydropyrimidine-2,4(1H,3H)-dione], in assay [1] (cell line not given), the DC50 was 10 to 50 nM. Moreover, the Dmax in assay [1] is greater than 90%. Moreover, the IC50 in assay [2] (Homo sapiens) lay within 1000 to 10000 nM; in assay [3] (Homo sapiens, MINO), 1000 to 10000 nM.

Regarding `Nc1ncnc2c1c(-c1ccc(Oc3ccccc3)cc1)nn2C1CCN(C2CCN(CCCN3CCC(c4ccc(N5CCC(=O)NC5=O)cc4)CC3)CC2)CC1` [Compound 571, 1-(4-(1-(3-(4-(4-amino-3-(4-phenoxyphenyl)-1H-pyrazolo[3,4-d]pyrimidin-1-yl)-[1,4′-bipiperidin]-1′-yl)propyl)piperidin-4-yl)phenyl)dihydropyrimidine-2,4(1H,3H)-dione], in assay [1] (cell line not given), the DC50 was in the range of 10 to 50 nM. Besides, the maximal degradation (Dmax) in assay [1] was greater than 90%. Moreover, the IC50 in assay [2] (Homo sapiens) was less than 1000 nM; in assay [3] (Homo sapiens, MINO), less than 1000 nM.

In the case of `Nc1ncnc2c1c(-c1ccc(Oc3ccccc3)cc1)nn2C1CCN(C2CCN(CCCN3CCN(c4ccc(N5CCC(=O)NC5=O)cc4)CC3)CC2)CC1` [Compound 572, 1-(4-(4-(3-(4-(4-amino-3-(4-phenoxyphenyl)-1H-pyrazolo[3,4-d]pyrimidin-1-yl)-[1,4′-bipiperidin]-1′-yl)propyl)piperazin-1-yl)phenyl)dihydropyrimidine-2,4(1H,3H)-dione], in assay [1] (cell line not given), the DC50 lay within 10 to 50 nM. The Dmax in assay [1] was greater than 90%. For the same compound, the IC50 was less than 1000 nM in assay [2] (Homo sapiens) and less than 1000 nM in assay [3] (Homo sapiens, MINO).

For the compound `Nc1ncnc2c1c(-c1ccc(Oc3ccccc3)cc1)nn2C1CCN(C2CCN(CC3CCN(c4ccc(N5CCC(=O)NC5=O)cc4)CC3)C2)CC1` (centres unmarked) [Compound 573, 1-(4-(4-((3-(4-(4-amino-3-(4-phenoxyphenyl)-1H-pyrazolo[3,4-d]pyrimidin-1-yl)piperidin-1-yl)pyrrolidin-1-yl)methyl)piperidin-1-yl)phenyl)dihydropyrimidine-2,4(1H,3H)-dione], the DC50 in assay [1] (cell line not given) was less than 10 nM. Besides, the Dmax in assay [1] is greater than 75%. For the same compound, the IC50 in assay [2] (Homo sapiens) was less than 1000 nM; in assay [3] (Homo sapiens, MINO) it was 1000 to 10000 nM.

Regarding `Nc1ncnc2c1c(-c1ccc(Oc3ccccc3)cc1)nn2C1CCN(C2CCN(CCN3CCC(c4ccc(N5CCC(=O)NC5=O)cc4)CC3)C2)CC1` (centres unmarked) [Compound 574, 1-(4-(1-(2-(3-(4-(4-amino-3-(4-phenoxyphenyl)-1H-pyrazolo[3,4-d]pyrimidin-1-yl)piperidin-1-yl)pyrrolidin-1-yl)ethyl)piperidin-4-yl)phenyl)dihydropyrimidine-2,4(1H,3H)-dione], the DC50 in assay [1] (cell line not given) lay in the range of 10 to 50 nM. For the same compound, the Dmax in assay [1] is greater than 90%. In addition, the IC50 in assay [2] (Homo sapiens) was 1000 to 10000 nM; in assay [3] (Homo sapiens, MINO) it was 1000 to 10000 nM.

For the compound `Nc1ncnc2c1c(-c1ccc(Oc3ccccc3)cc1)nn2C1CCN(C2CCN(CCN3CCN(c4ccc(N5CCC(=O)NC5=O)cc4)CC3)C2)CC1` (centres unmarked) [Compound 575, 1-(4-(4-(2-(3-(4-(4-amino-3-(4-phenoxyphenyl)-1H-pyrazolo[3,4-d]pyrimidin-1-yl)piperidin-1-yl)pyrrolidin-1-yl)ethyl)piperazin-1-yl)phenyl)dihydropyrimidine-2,4(1H,3H)-dione], the DC50 in assay [1] (cell line not given) was less than 10 nM. For the same compound, in assay [1], the Dmax is greater than 90%. The IC50 in assay [2] (Homo sapiens) was 1000 to 10000 nM; in assay [3] (Homo sapiens, MINO), 1000 to 10000 nM.

As for `Nc1ncnc2c1c(-c1ccc(Oc3ccccc3)cc1)nn2C1CCN(C2CCN(CCCN3CCC(c4ccc(N5CCC(=O)NC5=O)cc4)CC3)C2)CC1` (centres unmarked) [Compound 576, 1-(4-(1-(3-(3-(4-(4-amino-3-(4-phenoxyphenyl)-1H-pyrazolo[3,4-d]pyrimidin-1-yl)piperidin-1-yl)pyrrolidin-1-yl)propyl)piperidin-4-yl)phenyl)dihydropyrimidine-2,4(1H,3H)-dione], the DC50 in assay [1] (cell line not given) is less than 10 nM. For the same compound, the Dmax in assay [1] was greater than 90%. In addition, the IC50 in assay [2] (Homo sapiens) was less than 1000 nM; in assay [3] (Homo sapiens, MINO), 1000 to 10000 nM.

On to `Nc1ncnc2c1c(-c1ccc(Oc3ccccc3)cc1)nn2C1CCN(C2CCN(CCCN3CCN(c4ccc(N5CCC(=O)NC5=O)cc4)CC3)C2)CC1` (centres unmarked) [Compound 577, 1-(4-(4-(3-(3-(4-(4-amino-3-(4-phenoxyphenyl)-1H-pyrazolo[3,4-d]pyrimidin-1-yl)piperidin-1-yl)pyrrolidin-1-yl)propyl)piperazin-1-yl)phenyl)dihydropyrimidine-2,4(1H,3H)-dione], for which, in assay [1] (cell line not given), the DC50 is less than 10 nM. In assay [1], the Dmax was greater than 90%. Further, the IC50 fell in the range of 1000 to 10000 nM in assay [2] (Homo sapiens) and 1000 to 10000 nM in assay [3] (Homo sapiens, MINO).

Turning to `Nc1ncnc2c1c(-c1ccc(Oc3ccccc3)cc1)nn2C1CCN(C2CCN(CC3CCN(c4ccc(NC5CCC(=O)NC5=O)cc4)CC3)CC2)CC1` (centres unmarked) [Compound 578, 3-((4-(4-((4-(4-amino-3-(4-phenoxyphenyl)-1H-pyrazolo[3,4-d]pyrimidin-1-yl)-[1,4′-bipiperidin]-1′-yl)methyl)piperidin-1-yl)phenyl)amino)piperidine-2,6-dione], the DC50 in assay [1] (cell line not given) lay in the range of 10 to 50 nM. In addition, in assay [1], the Dmax is greater than 90%. The IC50 in assay [2] (Homo sapiens) lay in the range of 1000 to 10000 nM; in assay [3] (Homo sapiens, MINO), 1000 to 10000 nM.

Consider `Nc1ncnc2c1c(-c1ccc(Oc3ccccc3)cc1)nn2C1CCN(C2CCN(CCN3CCC(c4ccc(NC5CCC(=O)NC5=O)cc4)CC3)CC2)CC1` (centres unmarked) [Compound 579, 3-((4-(1-(2-(4-(4-amino-3-(4-phenoxyphenyl)-1H-pyrazolo[3,4-d]pyrimidin-1-yl)-[1,4′-bipiperidin]-1′-yl)ethyl)piperidin-4-yl)phenyl)amino)piperidine-2,6-dione], for which the DC50 in assay [1] (cell line not given) was 10 to 50 nM. In addition, the Dmax in assay [1] was greater than 90%. Besides, the IC50 in assay [2] (Homo sapiens) was less than 1000 nM; in assay [3] (Homo sapiens, MINO), less than 1000 nM.

Turning to `Nc1ncnc2c1c(-c1ccc(Oc3ccccc3)cc1)nn2C1CCN(C2CCN(CCCN3CCC(c4ccc(NC5CCC(=O)NC5=O)cc4)CC3)CC2)CC1` (centres unmarked) [Compound 580, 3-((4-(1-(3-(4-(4-amino-3-(4-phenoxyphenyl)-1H-pyrazolo[3,4-d]pyrimidin-1-yl)-[1,4′-bipiperidin]-1′-yl)propyl)piperidin-4-yl)phenyl)amino)piperidine-2,6-dione], in assay [1] (cell line not given), the DC50 is less than 10 nM. The Dmax in assay [1] is greater than 90%. For the same compound, the IC50 in assay [2] (Homo sapiens) was less than 1000 nM; in assay [3] (Homo sapiens, MINO) it was less than 1000 nM.

As for `Nc1ncnc2c1c(-c1ccc(Oc3ccccc3)cc1)nn2C1CCN(C2CCN(CCN3CCN(c4ccc(NC5CCC(=O)NC5=O)cc4)CC3)CC2)CC1` (centres unmarked) [Compound 581, 3-((4-(4-(2-(4-(4-amino-3-(4-phenoxyphenyl)-1H-pyrazolo[3,4-d]pyrimidin-1-yl)-[1,4′-bipiperidin]-1′-yl)ethyl)piperazin-1-yl)phenyl)amino)piperidine-2,6-dione], the half-maximal degradation concentration (DC50) in assay [1] (cell line not given) was less than 10 nM. The Dmax in assay [1] was greater than 90%. Further, the IC50 in assay [2] (Homo sapiens) is less than 1000 nM; in assay [3] (Homo sapiens, MINO) it was less than 1000 nM.

On to `Nc1ncnc2c1c(-c1ccc(Oc3ccccc3)cc1)nn2C1CCN(CC2CCN(CCCN3CCN(c4ccc(N5CCC(=O)NC5=O)cc4)CC3)CC2)CC1` [Compound 582, 1-(4-(4-(3-(4-((4-(4-amino-3-(4-phenoxyphenyl)-1H-pyrazolo[3,4-d]pyrimidin-1-yl)piperidin-1-yl)methyl)piperidin-1-yl)propyl)piperazin-1-yl)phenyl)dihydropyrimidine-2,4(1H,3H)-dione], for which the DC50 in assay [1] (cell line not given) lay in the range of 10 to 50 nM. Further, the Dmax in assay [1] was greater than 90%. Besides, the IC50 in assay [2] (Homo sapiens) is 1000 to 10000 nM; in assay [3] (Homo sapiens, MINO), less than 1000 nM.

Regarding “(7S)-7-(1-((1-(4-(2-(2,6- dioxopiperidin-3-yl)-1,3- dioxoisoindolin-5-yl)piperazine-1- carbonyl)piperidin-1- yl)methyl)piperidin-4-yl)-2-(4- phenoxyphenyl)-4,5,6,7- tetrahydropyrazolo[1,5-a]pyrimidine- 3-carboxamide [Compound 397]”, in assay [1] (cell line not given), the “Dmax (BTK degradation)” value is reported as “B (B >75%)” and the DC50 is greater than 50 nM. The IC50 in assay [2] lay within 1000 to 10000 nM. The IC50 in assay [3] was greater than 10000 nM.
